According to ChEMBL document CHEMBL3044624, “Cycloate, an inhibitor of fatty acid elongase, modulates the metabolism of very-long-side-chain alkylresorcinols in rye seedlings” (Pest Manag Sci, 2009):

Experiments:
Secale cereale [1] = experiment: Toxicity against green Secale cereale (rye) seedlings assessed as dry biomass of seedling grown at 22 +/-2 degC at 46 uM measured at 5 days after compound-treated seed germination (reference value: 3.28 +/-0.02 g); assay type: organism-based; settings: in vivo, 120 h
Secale cereale [2] = experiment: Change in alkylresorcinol homologue composition in dry shoots of green Secale cereale (rye) seedlings grown from compound-treated seeds at 22 +/-2 degC assessed as C19:1 content at 46 uM by GC/EI-MS analysis (reference value: 0.20 mg/kg dry weight); assay type: functional
Secale cereale [3] = experiment: Change in alkylresorcinol homologue composition in dry shoots of green Secale cereale (rye) seedlings grown from compound-treated seeds at 29 +/-2 degC assessed as C19:1 content at 46 uM by GC/EI-MS analysis (Rvb =0.17 mg/kg dry weight); assay type: functional
Secale cereale [4] = experiment: Change in alkylresorcinol homologue composition in dry shoots of green Secale cereale (rye) seedlings grown from compound-treated seeds at 15 +/-2 degC assessed as C17:1 content at 46 uM by GC/EI-MS analysis (reference value: 0.17 mg/kg dry weight); assay type: functional
Secale cereale [5] = experiment: Change in alkylresorcinol homologue composition in dry shoots of green Secale cereale (rye) seedlings grown from compound-treated seeds at 22 +/-2 degC assessed as C17:1 content at 46 uM by GC/EI-MS analysis (reference value: 0.21 mg/kg dry weight); assay type: functional
Secale cereale [6] = experiment: Change in alkylresorcinol homologue composition in dry shoots of green Secale cereale (rye) seedlings grown from compound-treated seeds at 15 +/-2 degC assessed as C15:0 content at 46 uM by GC/EI-MS analysis (reference value: 0.24 mg/kg dry weight); assay type: functional
Secale cereale [7] = experiment: Change in alkylresorcinol content in dry shoots of green Secale cereale (rye) seedlings grown from compound-treated seeds at 22 +/-2 degC at 46 uM by thin layer chromatography (reference value: 3.13 +/-0.07 mg/kg dry weight); assay type: functional
Secale cereale [8] = experiment: Change in alkylresorcinol content in dry shoots of green Secale cereale (rye) seedlings grown from compound-treated seeds at 29 +/-2 degC at 46 uM by thin layer chromatography (reference value: 1.94 +/-0.02 mg/kg dry weight); assay type: functional
Secale cereale [9] = experiment: Toxicity against etiolated Secale cereale (rye) seedlings assessed as dry biomass of seedling grown at 15 +/-2 degC at 46 uM measured at 5 days after compound-treated seed germination (reference value: 1.14 +/-0.01 g); assay type: organism-based; settings: in vivo, 120 h
Secale cereale [10] = experiment: Toxicity against etiolated Secale cereale (rye) seedlings assessed as fresh biomass of seedling grown at 15 +/-2 degC at 46 uM measured at 5 days after compound-treated seed germination (reference value: 7.63 +/-0.12 g); assay type: organism-based; settings: in vivo, 120 h
Secale cereale [11] = experiment: Change in alkylresorcinol homologue composition in dry shoots of etiolated Secale cereale (rye) seedlings grown from compound-treated seeds at 29 +/-2 degC assessed as C15:0 content at 46 uM by GC/EI-MS analysis (reference value: 0.09 mg/kg dry weight); assay type: functional
Secale cereale [12] = experiment: Change in alkylresorcinol homologue composition in dry shoots of etiolated Secale cereale (rye) seedlings grown from compound-treated seeds at 29 +/-2 degC assessed as C25:0 content at 46 uM by GC/EI-MS analysis (reference value: 0.06 mg/kg dry weight); assay type: functional
Secale cereale [13] = experiment: Change in alkylresorcinol homologue composition in dry shoots of etiolated Secale cereale (rye) seedlings grown from compound-treated seeds at 15 +/-2 degC assessed as C21:0 content at 46 uM by GC/EI-MS analysis (reference value: 0.78 mg/kg dry weight); assay type: functional
Secale cereale [14] = experiment: Change in alkylresorcinol homologue composition in dry shoots of etiolated Secale cereale (rye) seedlings grown from compound-treated seeds at 22 +/-2 degC assessed as C21:0 content at 46 uM by GC/EI-MS analysis (reference value: 1.49 mg/kg dry weight); assay type: functional
Secale cereale [15] = experiment: Change in alkylresorcinol homologue composition in dry shoots of etiolated Secale cereale (rye) seedlings grown from compound-treated seeds at 29 +/-2 degC assessed as C21:0 content at 46 uM by GC/EI-MS analysis (reference value: 0.96 mg/kg dry weight); assay type: functional
Secale cereale [16] = experiment: Change in alkylresorcinol homologue composition in dry shoots of etiolated Secale cereale (rye) seedlings grown from compound-treated seeds at 22 +/-2 degC assessed as C21:1 content at 46 uM by GC/EI-MS analysis (reference value: 0.12 mg/kg dry weight); assay type: functional
Secale cereale [17] = experiment: Change in alkylresorcinol homologue composition in dry shoots of etiolated Secale cereale (rye) seedlings grown from compound-treated seeds at 29 +/-2 degC assessed as C21:1 content at 46 uM by GC/EI-MS analysis (reference value: 0.04 mg/kg dry weight); assay type: functional
Secale cereale [18] = experiment: Change in alkylresorcinol homologue composition in dry shoots of etiolated Secale cereale (rye) seedlings grown from compound-treated seeds at 22 +/-2 degC assessed as C19:0 content at 46 uM by GC/EI-MS analysis (reference value: 1.83 mg/kg dry weight); assay type: functional
Secale cereale [19] = experiment: Change in alkylresorcinol homologue composition in dry shoots of etiolated Secale cereale (rye) seedlings grown from compound-treated seeds at 22 +/-2 degC assessed as C19:1 content at 46 uM by GC/EI-MS analysis (reference value: 0.24 mg/kg dry weight); assay type: functional
Secale cereale [20] = experiment: Change in alkylresorcinol homologue composition in dry shoots of etiolated Secale cereale (rye) seedlings grown from compound-treated seeds at 29 +/-2 degC assessed as C19:1 content at 46 uM by GC/EI-MS analysis (Rvb =0.09 mg/kg dry weight); assay type: functional
Secale cereale [21] = experiment: Change in alkylresorcinol homologue composition in dry shoots of green Secale cereale (rye) seedlings grown from compound-treated seeds at 22 +/-2 degC assessed as C25:0 content at 46 uM by GC/EI-MS analysis (reference value: 0.11 mg/kg dry weight); assay type: functional
Secale cereale [22] = experiment: Change in alkylresorcinol homologue composition in dry shoots of green Secale cereale (rye) seedlings grown from compound-treated seeds at 15 +/-2 degC assessed as C23:0 content at 46 uM by GC/EI-MS analysis (reference value: 0.59 mg/kg dry weight); assay type: functional
Secale cereale [23] = experiment: Change in alkylresorcinol homologue composition in dry shoots of green Secale cereale (rye) seedlings grown from compound-treated seeds at 22 +/-2 degC assessed as C23:0 content at 46 uM by GC/EI-MS analysis (reference value: 0.54 mg/kg dry weight); assay type: functional
Secale cereale [24] = experiment: Change in alkylresorcinol homologue composition in dry shoots of green Secale cereale (rye) seedlings grown from compound-treated seeds at 15 +/-2 degC assessed as C21:1 content at 46 uM by GC/EI-MS analysis; assay type: functional
Secale cereale [25] = experiment: Change in alkylresorcinol homologue composition in dry shoots of etiolated Secale cereale (rye) seedlings grown from compound-treated seeds at 15 +/-2 degC assessed as C19:1 content at 46 uM by GC/EI-MS analysis (reference value: 0.54 mg/kg dry weight); assay type: functional
Secale cereale [26] = experiment: Change in alkylresorcinol homologue composition in dry shoots of green Secale cereale (rye) seedlings grown from compound-treated seeds at 22 +/-2 degC assessed as C19:0 content at 46 uM by GC/EI-MS analysis (reference value: 0.56 mg/kg dry weight); assay type: functional

## CCSC(=O)N(CC)C1CCCCC1 [CYCLOATE]
Secale cereale [1]
  Activity: 2.03 g
Secale cereale [2]
  Activity: 0.36 mg/kg
Secale cereale [3]
  Activity: 1.09 mg/kg
Secale cereale [4]
  Activity: 0.34 mg/kg
Secale cereale [5]
  Activity: 0.13 mg/kg
Secale cereale [6]
  Activity: 0.75 mg/kg
Secale cereale [7]
  Activity: 3.17 mg/kg
Secale cereale [8]
  Activity: 13.96 mg/kg
Secale cereale [9]
  Activity: 0.92 g
Secale cereale [10]
  Activity: 4.41 g
Secale cereale [11]
  Activity: 0.72 mg/kg
Secale cereale [12]
  Activity: 0.23 mg/kg
Secale cereale [13]
  Activity: 0.69 mg/kg
Secale cereale [14]
  Activity: 0.48 mg/kg
Secale cereale [15]
  Activity: 1.2 mg/kg
Secale cereale [16]
  Activity: 0.11 mg/kg
Secale cereale [17]
  Activity: 0.33 mg/kg
Secale cereale [18]
  Activity: 0.7 mg/kg
Secale cereale [19]
  Activity: 0.21 mg/kg
Secale cereale [20]
  Activity: 1.2 mg/kg
Secale cereale [21]
  Activity: 0.07 mg/kg
Secale cereale [22]
  Activity: 0.17 mg/kg
Secale cereale [23]
  Activity: 0.13 mg/kg
Secale cereale [24]
  Activity: 0.19 mg/kg
Secale cereale [25]
  Activity: 1.08 mg/kg
Secale cereale [26]
  Activity: 0.87 mg/kg
